The values below come from US20230117034A1, “PYRAZOLOTRIAZINES” (Bayer Aktiengesellschaft, priority 2019, published 2023).

The subject of test [1] is BRCA1 mRNA expression in MDA-MB-231 cells. The test can be described thus: qRT-PCR assay: BRCA1 mRNA expression in MDA-MB-231. It is filed as cell-based, human. The note with it: Homo sapiens, MDA-MB-231, Inhibition of BRCA1 mRNA expression in MDA-MB-231 cells; median; read-out: RTqPCR-MDA-MB-231, IC50, BRCA1 (median). The method in brief: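 First, cells are plated at 200,000 per well and allowed 24 h. Second, test substances are applied continuously for a further 24 h. Finally, RNA is isolated, 600 ng is converted to cDNA, and qPCR quantifies the transcript relative to GAPDH.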

The next test deals with CDK12/CycK (Homo sapiens, UniProt Q9NYV4). The test is described as follows: CDK12/CycK high ATP kinase assay (TR-FRET, 2 mM ATP). It is filed as biochemical. Conditions: 2 mM ATP (high ATP); median; read-out: CDK12/CyclinK, 2 mM ATP (high ATP), IC50-[mol/l] (median). The method in brief: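 Read-out is TR-FRET (Eu-anti-rabbit IgG, anti-phospho-c-Myc Ser62 antibody, streptavidin-XL665) after EDTA stop. Reaction ran 60 min at 22 °C using 1 µM biotin-peptide and high ATP (2 mM) with roughly 0.75 nM recombinant CDK12/CycK, after 15 min compound pre-binding; normalised emission ratios yield IC50.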
Sequence of CDK12/CycK (Q9NYV4 with tags, fused parts or gaps): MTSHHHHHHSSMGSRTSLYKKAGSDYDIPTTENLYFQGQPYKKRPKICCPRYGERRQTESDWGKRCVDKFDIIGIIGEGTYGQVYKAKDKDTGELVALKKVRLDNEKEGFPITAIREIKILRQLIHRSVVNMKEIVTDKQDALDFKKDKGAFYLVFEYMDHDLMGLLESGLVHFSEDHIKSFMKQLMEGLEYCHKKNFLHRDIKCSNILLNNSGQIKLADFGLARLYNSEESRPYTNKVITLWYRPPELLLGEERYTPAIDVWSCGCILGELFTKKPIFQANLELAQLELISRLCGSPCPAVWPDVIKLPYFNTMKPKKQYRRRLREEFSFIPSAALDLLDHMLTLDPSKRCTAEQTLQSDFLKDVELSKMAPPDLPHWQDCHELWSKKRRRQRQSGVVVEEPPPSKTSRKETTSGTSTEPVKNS
Sequence of CDK12/CycK (O75909 1-300 partner limits assumed): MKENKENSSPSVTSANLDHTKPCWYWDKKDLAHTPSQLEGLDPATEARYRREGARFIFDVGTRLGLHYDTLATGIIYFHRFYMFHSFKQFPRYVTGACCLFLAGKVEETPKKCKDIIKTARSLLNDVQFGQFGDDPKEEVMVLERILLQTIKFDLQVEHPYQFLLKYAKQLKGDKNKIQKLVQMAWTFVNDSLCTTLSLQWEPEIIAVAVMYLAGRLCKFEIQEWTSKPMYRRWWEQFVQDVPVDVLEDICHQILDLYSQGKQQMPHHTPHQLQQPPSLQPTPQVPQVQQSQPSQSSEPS
Background: TR-FRET usually uses a lanthanide donor and a delayed reading to cut background.

For test [2], the target named is T1, CDK12 (nuclear staining in CAL-120 cells) (Homo sapiens, UniProt Q9NYV4).
T1 construct: endogenous in cells; host or cells: CAL-120 human breast cancer cells (DSMZ ACC 459)
T1 sequence (Q9NYV4 whole entry): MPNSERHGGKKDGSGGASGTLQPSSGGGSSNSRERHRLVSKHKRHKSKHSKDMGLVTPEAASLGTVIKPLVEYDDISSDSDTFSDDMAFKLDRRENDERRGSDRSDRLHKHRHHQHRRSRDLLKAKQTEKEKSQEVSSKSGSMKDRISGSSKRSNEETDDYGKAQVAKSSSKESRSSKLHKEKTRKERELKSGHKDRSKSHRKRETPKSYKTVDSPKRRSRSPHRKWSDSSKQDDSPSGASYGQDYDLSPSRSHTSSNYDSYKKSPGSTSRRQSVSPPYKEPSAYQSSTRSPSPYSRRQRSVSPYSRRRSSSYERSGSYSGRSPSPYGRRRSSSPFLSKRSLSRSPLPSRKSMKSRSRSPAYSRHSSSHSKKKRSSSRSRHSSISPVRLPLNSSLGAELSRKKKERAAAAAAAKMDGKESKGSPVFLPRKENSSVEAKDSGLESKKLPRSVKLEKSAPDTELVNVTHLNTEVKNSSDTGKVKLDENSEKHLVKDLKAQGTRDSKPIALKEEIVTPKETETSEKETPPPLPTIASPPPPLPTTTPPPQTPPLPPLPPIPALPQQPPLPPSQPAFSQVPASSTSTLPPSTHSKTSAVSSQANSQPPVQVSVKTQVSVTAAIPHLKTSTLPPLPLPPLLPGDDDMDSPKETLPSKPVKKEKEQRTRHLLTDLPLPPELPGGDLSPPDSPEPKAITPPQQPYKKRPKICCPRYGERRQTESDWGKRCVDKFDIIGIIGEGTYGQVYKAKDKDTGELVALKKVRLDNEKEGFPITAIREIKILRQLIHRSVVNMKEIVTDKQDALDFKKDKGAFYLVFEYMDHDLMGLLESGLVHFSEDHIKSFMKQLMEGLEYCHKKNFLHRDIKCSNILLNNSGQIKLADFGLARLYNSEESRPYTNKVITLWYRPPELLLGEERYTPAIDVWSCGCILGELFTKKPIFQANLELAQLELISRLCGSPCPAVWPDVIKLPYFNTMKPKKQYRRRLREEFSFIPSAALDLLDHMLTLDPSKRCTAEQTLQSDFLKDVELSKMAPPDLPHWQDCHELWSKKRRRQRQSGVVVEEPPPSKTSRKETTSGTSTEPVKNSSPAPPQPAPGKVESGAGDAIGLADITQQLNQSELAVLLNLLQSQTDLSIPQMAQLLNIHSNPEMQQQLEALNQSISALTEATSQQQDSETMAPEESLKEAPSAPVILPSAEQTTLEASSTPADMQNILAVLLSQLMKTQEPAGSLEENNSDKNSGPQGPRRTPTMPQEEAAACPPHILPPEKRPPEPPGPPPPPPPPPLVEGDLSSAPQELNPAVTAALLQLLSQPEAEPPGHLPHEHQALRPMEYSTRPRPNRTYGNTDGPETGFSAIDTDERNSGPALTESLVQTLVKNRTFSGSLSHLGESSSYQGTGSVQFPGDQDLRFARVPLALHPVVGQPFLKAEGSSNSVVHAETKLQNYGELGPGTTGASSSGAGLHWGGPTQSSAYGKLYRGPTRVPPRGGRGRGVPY
T1 sequence (O75909 whole entry partner): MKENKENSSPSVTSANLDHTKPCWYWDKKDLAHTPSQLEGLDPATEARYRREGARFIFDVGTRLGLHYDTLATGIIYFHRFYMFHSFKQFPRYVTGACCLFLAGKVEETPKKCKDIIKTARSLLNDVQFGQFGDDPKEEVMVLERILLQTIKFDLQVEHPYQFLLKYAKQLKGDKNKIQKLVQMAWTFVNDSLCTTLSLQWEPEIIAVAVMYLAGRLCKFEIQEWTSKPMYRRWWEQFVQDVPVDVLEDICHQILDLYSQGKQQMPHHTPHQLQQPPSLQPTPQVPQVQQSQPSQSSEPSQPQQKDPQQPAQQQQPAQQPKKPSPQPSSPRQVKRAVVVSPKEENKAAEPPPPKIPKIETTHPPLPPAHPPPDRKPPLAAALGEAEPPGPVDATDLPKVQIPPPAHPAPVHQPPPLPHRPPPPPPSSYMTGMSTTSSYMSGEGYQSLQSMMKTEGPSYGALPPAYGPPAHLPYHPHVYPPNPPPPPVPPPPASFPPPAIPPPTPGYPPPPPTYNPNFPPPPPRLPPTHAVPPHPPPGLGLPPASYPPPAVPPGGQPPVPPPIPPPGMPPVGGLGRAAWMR
The test can be described thus: CDK12 nuclear protein level: immunofluorescence/high content analysis (CAL-120). Conditions: for DC50: CAL-120 cells, 24 h, immunofluorescence, 50% reduction of nuclear CDK12 staining intensity, median, read-out: CDK12 degradation IF, DC50- [mol/l] (median); for (IC50 CDK12 high ATP) to (Degradation DC50 CDK12) ratio: ratio of IC50 CDK12 high ATP kinase assay to DC50 CDK12 degradation (IF, CAL-120). It is filed as cell-based. In short, it runs like this: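 DC50 is the degrader concentration that halves nuclear CDK12 immunofluorescence relative to controls, measured by high-content imaging. CAL-120 cells were exposed to compound for 24 h at 37 °C before PFA fixation, and signal was normalized to DMSO and control wells.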

For the molecule `CN1CCN(c2nc(NCc3nc4cc(Cl)c(Cl)cc4[nH]3)n3ncc(C4CC4)c3n2)CC1` [Example 305, 8-cyclopropyl-N-[(5,6-dichloro-1H-benzimidazol-2-yl)methyl]-2-(4-methylpiperazin-1-yl)pyrazolo[1,5-a][1,3,5]triazin-4-amine], in test [1], the IC50 was 6.23 nM.
For `CC(C)c1cnn2c(NCc3nc4ccccc4[nH]3)nc(N(C)C)nc12` [Example 3, N^4-[(1H-benzimidazol-2-yl)methyl]-N^2,N^2-dimethyl-8-(propan-2-yl)pyrazolo[1,5-a][1,3,5]triazine-2,4-diamine], the IC50 on CDK12/CycK is above 20000 nM. Further, in test [2], the DC50 was found to be 94.5 nM and the “(IC50 CDK12 high ATP) to (Degradation DC50 CDK12) ratio” value was above 212.
Regarding `CCc1cnn2c(NCc3nc4c(F)c(F)ccc4[nH]3)nc(N3CCN(C)CC3)nc12.O=CO` [Example 435, formic acid N-[(4,5-difluoro-1H-benzimidazol-2-yl)methyl]-8-ethyl-2-(4-methylpiperazin-1-yl)pyrazolo[1,5-a][1,3,5]triazin-4-amine], the IC50 in test [1] turned out to be 0.959 nM. Also, in test [2], the DC50 was 0.591 nM and the “(IC50 CDK12 high ATP) to (Degradation DC50 CDK12) ratio” value is reported as 9674.
Turning to `Fc1cccc(-c2cnc(CNc3nc(N4CCOCC4)nc4c(Br)cnn34)[nH]2)c1` [Example 79, 8-bromo-N-{[5-(3-fluorophenyl)-1H-imidazol-2-yl]methyl}-2-(morpholin-4-yl)pyrazolo[1,5-a][1,3,5]triazin-4-amine], the IC50 on CDK12/CycK is 566 nM. Besides, in test [2], the DC50 was found to be 1.23 nM and the “(IC50 CDK12 high ATP) to (Degradation DC50 CDK12) ratio” value was found to be 460.
As to `Fc1cccc(-c2cnn3c(NCc4nc5ccccc5[nH]4)nc(N4CCOCC4)nc23)c1` [Example 91, N-[(1H-benzimidazol-2-yl)methyl]-8-(3-fluorophenyl)-2-(morpholin-4-yl)pyrazolo[1,5-a][1,3,5]triazin-4-amine], the IC50 was above 57100 nM on CDK12/CycK and 85.5 nM in test [1]. In test [2], the DC50 worked out at 42.8 nM. The “(IC50 CDK12 high ATP) to (Degradation DC50 CDK12) ratio” value in test [2] was above 133.
In the case of `FC(F)(F)c1ccccc1-c1cnc(CNc2nc(N3CCOCC3)nc3c(Br)cnn23)[nH]1` [Example 88, 8-bromo-2-(morpholin-4-yl)-N-({5-[2-(trifluoromethyl)phenyl]-1H-imidazol-2-yl}methyl)pyrazolo[1,5-a][1,3,5]triazin-4-amine], the IC50 at CDK12/CycK came out at 1360 nM. In test [2], the DC50 worked out at 16.3 nM and the “(IC50 CDK12 high ATP) to (Degradation DC50 CDK12) ratio” value is on record as 84.
Consider `Fc1ccc2[nH]c(CNc3nc(N4CCOCC4)nc4c(-c5cnn(C(F)F)c5)cnn34)nc2c1F` [Example 422, N-[(4,5-difluoro-1H-benzimidazol-2-yl)methyl]-8-[1-(difluoromethyl)-1H-pyrazol-4-yl]-2-(morpholin-4-yl)pyrazolo[1,5-a][1,3,5]triazin-4-amine], for which the IC50 in test [1] came to 7.43 nM. In addition, in test [2], the DC50 is 6.81 nM and the “(IC50 CDK12 high ATP) to (Degradation DC50 CDK12) ratio” value is 239.
The like results for `CC(C)c1cnn2c(NCc3nc4ccccc4[nH]3)nc(N3CCOC(C)(C)C3)nc12` [Example 12, N-[(1H-benzimidazol-2-yl)methyl]-2-(2,2-dimethylmorpholin-4-yl)-8-(propan-2-yl)pyrazolo[1,5-a][1,3,5]triazin-4-amine] were, in that order, 117 nM, 42.7 nM and 399.
Regarding `O[C@@H]1CCN(c2nc(NCc3nc4ccccc4[nH]3)n3ncc(Br)c3n2)C1` [Example 202, (3R)-1-(4-{[(1H-benzimidazol-2-yl)methyl]amino}-8-bromopyrazolo[1,5-a][1,3,5]triazin-2-yl)pyrrolidin-3-ol], in test [2], the DC50 turned out to be 31.8 nM and the “(IC50 CDK12 high ATP) to (Degradation DC50 CDK12) ratio” value came out at 518.
For `FC(F)(F)Oc1ccccc1-c1nnc(CNc2nc(N3CCOCC3)nc3c(Br)cnn23)[nH]1` [Example 74, 8-bromo-2-(morpholin-4-yl)-N-({5-[2-(trifluoromethoxy)phenyl]-4H-1,2,4-triazol-3-yl}methyl)pyrazolo[1,5-a][1,3,5]triazin-4-amine], the IC50 at CDK12/CycK is above 20000 nM. Besides, the DC50 in test [2] came to 57.4 nM.
Consider `COC1CCN(c2nc(NCc3nnc(-c4ccccc4)[nH]3)n3ncc(Br)c3n2)CC1` [Example 76, 8-bromo-2-(4-methoxypiperidin-1-yl)-N-[(5-phenyl-4H-1,2,4-triazol-3-yl)methyl]pyrazolo[1,5-a][1,3,5]triazin-4-amine], for which the IC50 on CDK12/CycK is above 5330 nM. In test [2], the DC50 was 12.1 nM and the “(IC50 CDK12 high ATP) to (Degradation DC50 CDK12) ratio” value was above 440.
Regarding `Clc1cccc(-c2cnc(CNc3nc(N4CCOCC4)nc4c(Br)cnn34)[nH]2)c1` [Example 81, 8-bromo-N-{[5-(3-chlorophenyl)-1H-imidazol-2-yl]methyl}-2-(morpholin-4-yl)pyrazolo[1,5-a][1,3,5]triazin-4-amine], at CDK12/CycK, the IC50 came out at 765 nM. Besides, in test [2], the DC50 stood at 5.31 nM and the “(IC50 CDK12 high ATP) to (Degradation DC50 CDK12) ratio” value is given as 144.
Consider `FC(F)(F)Oc1ccccc1-c1cnc(CNc2nc(N3CCOCC3)nc3c(Br)cnn23)[nH]1` [Example 89, 8-bromo-2-(morpholin-4-yl)-N-({5-[2-(trifluoromethoxy)phenyl]-1H-imidazol-2-yl}methyl)pyrazolo[1,5-a][1,3,5]triazin-4-amine], for which the IC50 at CDK12/CycK amounted to 10700 nM. In test [2], the DC50 was 7.3 nM and the “(IC50 CDK12 high ATP) to (Degradation DC50 CDK12) ratio” value is on record as 1471.
For `Fc1ccccc1-c1nnc(CNc2nc(N3CCOCC3)nc3c(Br)cnn23)[nH]1` [Example 75, 8-bromo-N-{[5-(2-fluorophenyl)-4H-1,2,4-triazol-3-yl]methyl}-2-(morpholin-4-yl)pyrazolo[1,5-a][1,3,5]triazin-4-amine], the IC50 at CDK12/CycK was above 3770 nM. In addition, in test [2], the DC50 came out at 7.38 nM and the “(IC50 CDK12 high ATP) to (Degradation DC50 CDK12) ratio” value is above 511.
The like results for `FC(F)(F)Oc1cccc(-c2cnc(CNc3nc(N4CCOCC4)nc4c(Br)cnn34)[nH]2)c1` [Example 82, 8-bromo-2-(morpholin-4-yl)-N-({5-[3-(trifluoromethoxy)phenyl]-1H-imidazol-2-yl}methyl)pyrazolo[1,5-a][1,3,5]triazin-4-amine] were, in that order, 916 nM, 22.3 nM and 41.
As to `CN1CCN(c2nc(NCc3nc4cc(C(F)(F)F)ccc4[nH]3)n3ncc(C4CC4)c3n2)CC1` [Example 313, 8-cyclopropyl-2-(4-methylpiperazin-1-yl)-N-{[5-(trifluoromethyl)-1H-benzimidazol-2-yl]methyl}pyrazolo[1,5-a][1,3,5]triazin-4-amine], in test [1], the IC50 came out at 22.1 nM. Moreover, in test [2], the DC50 came to 26.8 nM and the “(IC50 CDK12 high ATP) to (Degradation DC50 CDK12) ratio” value was determined as 679.
Regarding `Clc1ccccc1-c1nnc(CNc2nc(N3CCOCC3)nc3c(Br)cnn23)[nH]1` [Example 69, 8-bromo-N-{[5-(2-chlorophenyl)-4H-1,2,4-triazol-3-yl]methyl}-2-(morpholin-4-yl)pyrazolo[1,5-a][1,3,5]triazin-4-amine], on CDK12/CycK, the IC50 is above 5710 nM. In test [2], the DC50 was 84.5 nM and the “(IC50 CDK12 high ATP) to (Degradation DC50 CDK12) ratio” value is recorded as above 68.
Regarding `FC(F)(F)c1cccc(-c2cnc(CNc3nc(N4CCOCC4)nc4c(Br)cnn34)[nH]2)c1` [Example 83, 8-bromo-2-(morpholin-4-yl)-N-({5-[3-(trifluoromethyl)phenyl]-1H-imidazol-2-yl}methyl)pyrazolo[1,5-a][1,3,5]triazin-4-amine], the IC50 on CDK12/CycK was found to be 1040 nM. Further, in test [2], the DC50 was determined as 9.37 nM and the “(IC50 CDK12 high ATP) to (Degradation DC50 CDK12) ratio” value is given as 111.
In the same order, the values of `COC(=O)C1CCN(c2nc(NCc3nnc(-c4ccccc4)[nH]3)n3ncc(Br)c3n2)CC1` [Example 77, methyl 1-(8-bromo-4-{[(5-phenyl-4H-1,2,4-triazol-3-yl)methyl]amino}pyrazolo[1,5-a][1,3,5]triazin-2-yl)piperidine-4-carboxylate] are 10100 nM, 116 nM and 87.
In the same order, the values of `c1ccc(-c2nnc(CNc3nc(N4CCOCC4)nc4c(C5CC5)cnn34)[nH]2)cc1` [Example 93, 8-cyclopropyl-2-(morpholin-4-yl)-N-[(5-phenyl-4H-1,2,4-triazol-3-yl)methyl]pyrazolo[1,5-a][1,3,5]triazin-4-amine] are 2700 nM, 23.3 nM and 116.
In the same order, the values of `C[C@@H]1CN(c2nc(NCc3nnc(-c4ccccc4)[nH]3)n3ncc(Br)c3n2)C[C@H](C)O1` [Example 78, 8-bromo-2-[(2R,6S)-2,6-dimethylmorpholin-4-yl]-N-[(5-phenyl-4H-1,2,4-triazol-3-yl)methyl]pyrazolo[1,5-a][1,3,5]triazin-4-amine] are 726 nM, 5.15 nM and 141.
